Results as given in patent US20150125526A1 (Raptor Pharmaceuticals Inc., priority 2013, published 2015).

How the values were obtained:
[1] = tested on: mice with the gene mutation for Huntington's disease; details: mouse, in vivo; cited from earlier work
Sod2 null mice [2] = details: untreated Sod2 null mice die after approximately 1 week; cited from earlier work
Sod2 null mice [3] = assay: Administration of cysteamine bitartrate to Sod2 null mice: survival, weight gain, toxicity; type: in vivo; details: cysteamine bitartrate 30 mg/kg, single dose
Method: Sod2 null mice provide a method for determining the efficacy in vivo of compounds having antioxidant properties, particularly those with mitochondrial efficacy. Without antioxidant efficacy, Sod2 null mice die after approximately 1 week, with antioxidant intervention, the lifespan can be extended 3-fold using powerful catalytic synthetic antioxidants such as EUK-189 (Melov et al., J Neurosci. 21(21):8348-53, 2001).
A single dose of the test agent is administered to the animals, either intraperitoneally or subcutaneously.

[4] = tested on: intracellular cystine (circulating white blood cells); details: cited from earlier work
FRDA fibroblasts = details: preincubation prior to exposure to BSO; cited from earlier work

NCCSSCCN [Cystamine]
life (survival) [1]: prolong life
tremors [1]: alleviate tremors

CC(=O)O.CCOc1cccc(C=NCCN=Cc2cccc(OCC)c2[O-])c1[O-].[Mn] [EUK-189]
extension of lifespan (Sod2 null mice [2]): 3 fold

NCCS [cysteamine, Cysteamine (HS—CH2—CH2—NH2)]
weight gain compared to untreated animals (Sod2 null mice [3]; initial experiment): normal
survival analysis (Sod2 null mice [3]; preliminary experiment): inconclusive
time to observed decrease in leukocyte cystine ([4]; delivery of cysteamine into the small intestine (WO 2007/089670)): within an hour
depletion of intracellular cystine ([4]; taken regularly, measured in circulating white blood cells): up to 90%

COC1=C(OC)C(=O)C(CCCCCCCCCCO)=C(C)C1=O [idebenone]
protection from cell death (FRDA fibroblasts): protected cells from cell death

vitamin E
protection from cell death (FRDA fibroblasts): protected cells from cell death
